In PMC12226733, “Evolution of iGluR ligand specificity, polyamine regulation, and ion selectivity inferred from a placozoan epsilon receptor” (Communications Biology, 2025):
Like-named read-outs stand apart in the source and are kept apart here.

Biological target: T1, GluE1αA S642Q (Trichoplax adhaerens, UniProt B3SAW0, S167Q)
T1 sequence (B3SAW0 1-341 S167Q): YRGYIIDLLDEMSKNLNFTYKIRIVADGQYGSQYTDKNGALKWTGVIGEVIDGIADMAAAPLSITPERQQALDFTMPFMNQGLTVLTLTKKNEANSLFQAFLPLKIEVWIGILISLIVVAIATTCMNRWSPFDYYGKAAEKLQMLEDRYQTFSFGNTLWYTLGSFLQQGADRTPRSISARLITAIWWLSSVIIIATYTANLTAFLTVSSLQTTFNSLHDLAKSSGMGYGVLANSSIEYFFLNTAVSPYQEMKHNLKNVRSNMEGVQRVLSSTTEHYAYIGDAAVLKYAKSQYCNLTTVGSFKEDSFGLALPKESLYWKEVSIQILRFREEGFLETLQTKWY
Format: cell-based
Conditions: […]; for normalized conductance (G-V, Figure 5g), Avg: Na vs Na; for I-V current, Na vs Na, Avg of recordings: Figure 5b

With [Na+] [Na] the “normalized conductance (G-V, Figure 5g), Avg” value (shortened to “normalized conductance”) (Vm 0.00) was 0.20, the “normalized conductance” value (Vm 20.00) was 0.25 and the “normalized conductance” value (Vm 40.00) was 0.52. For the same compound, the “normalized conductance” value (Vm 60.00) was 0.72, the “normalized conductance” value (Vm 80.00) was 0.79 and the “normalized conductance” value (Vm -20.00) was 0.51. For the same compound, the “normalized conductance” value (Vm -40.00) was 0.84, the “normalized conductance” value (Vm -60.00) was 0.93 and the “normalized conductance” value (Vm -80.00) was 1.00. For the same compound, the “I-V current, Na vs Na, Avg of recordings” value (Vm 0.00) was 0.0017, the “I-V current, Na vs Na, Avg of recordings” value (Vm 20.00) was 0.0327 and the “I-V current, Na vs Na, Avg of recordings” value (Vm 40.00) was 0.13. The “I-V current, Na vs Na, Avg of recordings” value (Vm 60.00) was 0.30, the “I-V current, Na vs Na, Avg of recordings” value (Vm 80.00) was 0.51 and the “I-V current, Na vs Na, Avg of recordings” value (Vm -20.00) was -0.07. The “I-V current, Na vs Na, Avg of recordings” value (Vm -40.00) was -0.26, the “I-V current, Na vs Na, Avg of recordings” value (Vm -60.00) was -0.50 and the “I-V current, Na vs Na, Avg of recordings” value (Vm -80.00) was -0.73.
